# Measurements from patent US11986471B2, “Compounds and methods of use” (Tango Therapeutics, Inc., priority 2018, dated 2024).
# Key:
# PRMT5 [1] = molecular target: T1, PRMT5 (Homo sapiens, UniProt O14744); assay: PRMT5 IC50 assay with no cofactor; format: biochemical; conditions: read-out: No Co-factor IC50
# T1 construct: purchased Viva (custom protein)
# Outline: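 Each compound is tested on PRMT5 in the presence of SAM, of MTA, and without any cofactor. Ki values are then back-calculated using fixed factors of 1.5 (SAM) and 13.5 (MTA), and the two Ki values are compared as a ratio.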
# PRMT5 [2] = molecular target: T1, PRMT5; assay: PRMT5 IC50 assay in the presence of MTA as cofactor; format: biochemical; conditions: for IC50: PRMT5, MTA as cofactor; for SAM/MTA Ratio: ratio between Ki in the presence of SAM and Ki in the presence of MTA
# Outline: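 IC50 values were measured against human PRMT5 with SAM, with MTA, or with no cofactor. Ki was derived from IC50 as Ki=IC50/1.5 with SAM and Ki=IC50/13.5 with MTA, and the Ki(SAM)/Ki(MTA) ratio was then taken.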
# HAP1 MTAP-deleted = assay: SDMA in-cell western assay, HAP1 MTAP-deleted cell line; format: cell-based; conditions: for IC50: Homo sapiens, HAP1 MTAP-deleted cell line; for MTAP Intact/Deleted Ratio: IC50 ratio HAP1 MTAP-intact / HAP1 MTAP-deleted
# Outline: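 Readout is cellular SDMA signal by in-cell western, with IC50 values derived from it. The cells are MTAP-null HAP1, matched to an isogenic MTAP-intact HAP1 line.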
# HAP1 MTAP-intact = assay: SDMA in-cell western assay, HAP1 MTAP-intact cell line; format: cell-based; conditions: Homo sapiens
# Outline: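 IC50 values come from SDMA in-cell western staining of HAP1 cells. The MTAP-intact line carries endogenous MTAP, while its MTAP-deleted counterpart lacks MTAP entirely. A selectivity ratio of at least 3 fold marks a compound as MTAP-selective.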
# PRMT5 [3] = molecular target: T1, PRMT5; assay: PRMT5 IC50 assay in the presence of SAM as cofactor; format: biochemical
# Outline: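 Results given as IC50 (μM), from which Ki follows by dividing by 1.5 in the SAM condition or by 13.5 in the MTA condition. The ratio of SAM Ki to MTA Ki indicates MTA-cooperative preference.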
# T1 sequence (O14744 whole entry): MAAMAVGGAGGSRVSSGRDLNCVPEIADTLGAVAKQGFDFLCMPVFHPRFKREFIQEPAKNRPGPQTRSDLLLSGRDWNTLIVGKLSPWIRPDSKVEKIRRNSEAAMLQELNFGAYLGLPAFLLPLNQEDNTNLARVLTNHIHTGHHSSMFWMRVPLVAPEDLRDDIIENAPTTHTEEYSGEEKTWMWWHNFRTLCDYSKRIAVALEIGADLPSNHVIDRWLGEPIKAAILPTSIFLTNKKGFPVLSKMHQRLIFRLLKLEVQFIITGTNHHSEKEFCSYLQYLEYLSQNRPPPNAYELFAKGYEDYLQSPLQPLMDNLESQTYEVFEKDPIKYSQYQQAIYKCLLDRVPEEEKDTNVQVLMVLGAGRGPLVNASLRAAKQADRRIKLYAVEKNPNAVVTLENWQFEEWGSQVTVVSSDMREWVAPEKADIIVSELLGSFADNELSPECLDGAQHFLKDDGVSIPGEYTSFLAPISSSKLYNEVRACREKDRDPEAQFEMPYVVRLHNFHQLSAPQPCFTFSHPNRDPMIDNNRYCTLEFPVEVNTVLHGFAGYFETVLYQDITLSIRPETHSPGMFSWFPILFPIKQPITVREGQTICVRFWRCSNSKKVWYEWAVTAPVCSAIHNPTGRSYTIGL
# T1 sequence (Q9BQA1 whole entry partner): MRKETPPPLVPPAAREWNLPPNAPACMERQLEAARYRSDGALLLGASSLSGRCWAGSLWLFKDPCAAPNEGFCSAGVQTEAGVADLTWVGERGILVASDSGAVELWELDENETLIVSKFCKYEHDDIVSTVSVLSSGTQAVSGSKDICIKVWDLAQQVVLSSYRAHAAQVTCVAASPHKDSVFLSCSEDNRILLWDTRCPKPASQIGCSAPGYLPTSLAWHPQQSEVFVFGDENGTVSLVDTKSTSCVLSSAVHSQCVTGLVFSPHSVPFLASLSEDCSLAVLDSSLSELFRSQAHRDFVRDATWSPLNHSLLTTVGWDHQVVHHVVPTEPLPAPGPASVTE
SMILES,IC50 (PRMT5 [1]) [nM],IC50 (PRMT5 [2]) [nM],IC50 (HAP1 MTAP-deleted) [nM],IC50 (HAP1 MTAP-intact) [nM],IC50 (PRMT5 [3]) [nM],SAM/MTA Ratio (PRMT5 [2]),MTAP Intact/Deleted Ratio (HAP1 MTAP-deleted)
"O=C(NC[C@H](O)CN1CCc2c(ccc(OCc3cnco3)c2Cl)C1)c1ccc(OC2CCN(Cc3ccncc3)CC2)cc1 [Compound 301, (S)—N-(3-(5-chloro-6-(oxazol-5-ylmethoxy)-3,4-dihydroisoquinolin-2(1H)-yl)-2-hydroxypropyl)-4-((1-(pyridin-4-ylmethyl)piperidin-4-yl)oxy)benzamide]",500 to 5000,50 to 500,1000 to 10000,≥ 10000,50 to 500,A (a Ki ratio greater than or equal to 10 fold between the Ki in the presence of SAM and the Ki in the presence of MTA),C* (an IC50 ratio of less than 3 fold between the IC50 in the HAP1 MTAP-intact cell line and the HAP1 MTAP-deleted cell line)
"O=C(NC[C@H](O)CN1CCc2c(ccc(OCc3cnco3)c2Cl)C1)c1cc(NC2CCC2)nc(N2CCCCC2)c1 [Compound 305, (S)—N-(3-(5-chloro-6-(oxazol-5-ylmethoxy)-3N-dihydroisoquinolin-2(1H)-yl)-2-hydroxypropyl)-2-(cyclobutylamino)-6-(piperidin-1-yl)isonicotinamide]",≥ 5000,500 to 5000,1000 to 10000,≥ 10000,500 to 5000,A (a Ki ratio greater than or equal to 10 fold between the Ki in the presence of SAM and the Ki in the presence of MTA),C* (an IC50 ratio of less than 3 fold between the IC50 in the HAP1 MTAP-intact cell line and the HAP1 MTAP-deleted cell line)
"CC(C)(C)N1CCN(c2cc(C(=O)NC[C@H](O)CN3CCc4cc(OCc5cnco5)ccc4C3)cc(NC3CCC3)n2)CC1 [Compound 306, (S)-2-(4-(tert-butyl)piperazin-1-yl)-6-(cyclobutylamino)-N-(2-hydroxy-3-(6-(oxazol-5-ylmethoxy)-3N-dihydroisoquinolin-2(1H)-yl)propyl)isonicotinamide]",500 to 5000,50 to 500,≥ 10000,1000 to 10000,50 to 500,A (a Ki ratio greater than or equal to 10 fold between the Ki in the presence of SAM and the Ki in the presence of MTA),C* (an IC50 ratio of less than 3 fold between the IC50 in the HAP1 MTAP-intact cell line and the HAP1 MTAP-deleted cell line)
"CC(C)Cc1cc(C(=O)NC[C@H](O)CN2CCc3cc(OCc4cnco4)ccc3C2)cc(NC2CCC2)n1 [Compound 307, (S)-2-(cyclobutylamino)-N-(2-hydroxy-3-(6-(oxazol-5-ylmethoxy)-3,4-dihydroisoquinolin-2(1H)-yl)propyl)-6-isobutylisonicotinamide]",≥ 5000,50 to 500,< 1000,1000 to 10000,500 to 5000,A (a Ki ratio greater than or equal to 10 fold between the Ki in the presence of SAM and the Ki in the presence of MTA),C* (an IC50 ratio of less than 3 fold between the IC50 in the HAP1 MTAP-intact cell line and the HAP1 MTAP-deleted cell line)
"CC(C)(C)c1cc(C(=O)NC[C@H](O)CN2CCc3cc(OCc4cnco4)ccc3C2)cc(NC2CCC2)n1 [Compound 308, (S)-2-(tert-butyl)-6-(cyclobutylamino)-N-(2-hydroxy-3-(6-(oxazol-5-ylmethoxy)-3,4-dihydroisoquinolin-2(1H)-yl)propyl)isonicotinamide]",≥ 5000,500 to 5000,≥ 10000,≥ 10000,500 to 5000,A (a Ki ratio greater than or equal to 10 fold between the Ki in the presence of SAM and the Ki in the presence of MTA),C* (an IC50 ratio of less than 3 fold between the IC50 in the HAP1 MTAP-intact cell line and the HAP1 MTAP-deleted cell line)
"CCC(=O)N1CCN(c2nc(NC3COC3)cc(C(=O)NC[C@H](O)CN3CCc4cc(OCc5cnco5)ccc4C3)n2)CC1 [Compound 309, (S)—N-(2-hydroxy-3-(6-(oxazol-5-ylmethoxy)-3,4-dihydroisoquinolin-2(1H)-yl)propyl)-6-(oxetan-3-ylamino)-2-(4-propionylpiperazin-1-yl)pyrimidine-4-carboxamide]",500 to 5000,50 to 500,1000 to 10000,≥ 10000,50 to 500,A (a Ki ratio greater than or equal to 10 fold between the Ki in the presence of SAM and the Ki in the presence of MTA),C* (an IC50 ratio of less than 3 fold between the IC50 in the HAP1 MTAP-intact cell line and the HAP1 MTAP-deleted cell line)
"COc1cc(C(=O)NC[C@H](O)CN2CCc3cc(OCc4cnco4)ccc3C2)cc(NC2CCC2)n1 [Compound 310, (S)-2-(cyclobutylamino)-N-(2-hydroxy-3-(6-(oxazol-5-ylmethoxy)-3,4-dihydroisoquinolin-2(1H)-yl)propyl)-6-methoxyisonicotinamide]",≥ 5000,50 to 500,1000 to 10000,1000 to 10000,500 to 5000,A (a Ki ratio greater than or equal to 10 fold between the Ki in the presence of SAM and the Ki in the presence of MTA),B* (an IC50 ratio greater than or equal to 3 fold but lower than 10 fold between the IC50 in the HAP1 MTAP-intact cell line and the HAP1 MTAP-deleted cell line)

# Further lines, with some results ahead:
IC50 (PRMT5 [1]) [nM],IC50 (PRMT5 [2]) [nM],IC50 (HAP1 MTAP-deleted) [nM],IC50 (HAP1 MTAP-intact) [nM],IC50 (PRMT5 [3]) [nM],SMILES,SAM/MTA Ratio (PRMT5 [2]),MTAP Intact/Deleted Ratio (HAP1 MTAP-deleted)
500 to 5000,50 to 500,1000 to 10000,≥ 10000,50 to 500,"CCN1CCN(c2cc(C(=O)NC[C@H](O)CN3CCc4c(ccc(OCc5cnco5)c4Cl)C3)cc(NC3CCC3)n2)CC1 [Compound 299, (S)—N-(3-(5-chloro-6-(oxazol-5-ylmethoxy)-3N-dihydroisoquinolin-2(1H)-yl)-2-hydroxypropyl)-2-(cyclobutylamino)-6-(4-ethylpiperazin-1-yl)isonicotinamide]",A (a Ki ratio greater than or equal to 10 fold between the Ki in the presence of SAM and the Ki in the presence of MTA),B* (an IC50 ratio greater than or equal to 3 fold but lower than 10 fold between the IC50 in the HAP1 MTAP-intact cell line and the HAP1 MTAP-deleted cell line)
500 to 5000,50 to 500,≥ 10000,≥ 10000,50 to 500,"CC(=O)N1CCN(c2nc(NC3COC3)cc(C(=O)NC[C@H](O)CN3CCc4c(ccc(OCc5cnco5)c4Cl)C3)n2)CC1 [Compound 300, (S)-2-(4-acetylpiperazin-1-yl)-N-(3-(5-chloro-6-(oxazol-5-ylmethoxy)-3,4-dihydroisoquinolin-2(1H)-yl)-2-hydroxypropyl)-6-(oxetan-3-ylamino)pyrimidine-4-carboxamide]",A (a Ki ratio greater than or equal to 10 fold between the Ki in the presence of SAM and the Ki in the presence of MTA),C* (an IC50 ratio of less than 3 fold between the IC50 in the HAP1 MTAP-intact cell line and the HAP1 MTAP-deleted cell line)
≥ 5000,50 to 500,≥ 10000,≥ 10000,500 to 5000,"COc1cc(C(=O)NC[C@H](O)CN2CCc3c(ccc(OCc4cnco4)c3Cl)C2)cc(NC2CCC2)n1 [Compound 302, (S)—N-(3-(5-chloro-6-(oxazol-5-ylmethoxy)-3N-dihydroisoquinolin-2(1H)-yl)-2-hydroxypropyl)-2-(cyclobutylamino)-6-methoxyisonicotinamide]",A (a Ki ratio greater than or equal to 10 fold between the Ki in the presence of SAM and the Ki in the presence of MTA),C* (an IC50 ratio of less than 3 fold between the IC50 in the HAP1 MTAP-intact cell line and the HAP1 MTAP-deleted cell line)
≥ 5000,50 to 500,1000 to 10000,≥ 10000,50 to 500,CCN(C)c1nc(NC2COC2)cc(C(=O)NC[C@H](O)CN2CCc3c(ccc(OCc4cnco4)c3Cl)C2)n1 [Compound 303],A (a Ki ratio greater than or equal to 10 fold between the Ki in the presence of SAM and the Ki in the presence of MTA),C* (an IC50 ratio of less than 3 fold between the IC50 in the HAP1 MTAP-intact cell line and the HAP1 MTAP-deleted cell line)
500 to 5000,50 to 500,1000 to 10000,1000 to 10000,50 to 500,"O=C(NC[C@H](O)CN1CCc2cc(OCc3cnco3)ccc2C1)c1cc(NC2COC2)nc(N2CCOCC2)n1 [Compound 304, (S)—N-(2-hydroxy-3-(6-(oxazol-5-ylmethoxy)-3N-dihydroisoquinolin-2(1H)-yl)propyl)-2-morpholino-6-(oxetan-3-ylamino)pyrimidine-4-carboxamide]",–,C* (an IC50 ratio of less than 3 fold between the IC50 in the HAP1 MTAP-intact cell line and the HAP1 MTAP-deleted cell line)
≥ 5000,50 to 500,≥ 10000,≥ 10000,50 to 500,"O=C(NC[C@H](O)CN1CCc2c(ccc(OCc3cnco3)c2Cl)C1)c1ccnc(NC2CCC(F)CC2)c1 (stereo partly drawn) [Compound 311, (S)—N-(3-(5-chloro-6-(oxazol-5-ylmethoxy)-3N-dihydroisoquinolin-2(1H)-yl)-2-hydroxypropyl)-2-((4-fluorocyclohexyl)amino)isonicotinamide]",A (a Ki ratio greater than or equal to 10 fold between the Ki in the presence of SAM and the Ki in the presence of MTA),C* (an IC50 ratio of less than 3 fold between the IC50 in the HAP1 MTAP-intact cell line and the HAP1 MTAP-deleted cell line)
